{"source": "paper PMC12672436", "about": "(Frontiers in Pharmacology, 2025)", "key": {"human DAT": {"molecular_target": "T1, human DAT (Homo sapiens, UniProt Q01959)", "T1 construct": "expressed in transfected cells", "T1 sequence (Q01959 whole entry)": "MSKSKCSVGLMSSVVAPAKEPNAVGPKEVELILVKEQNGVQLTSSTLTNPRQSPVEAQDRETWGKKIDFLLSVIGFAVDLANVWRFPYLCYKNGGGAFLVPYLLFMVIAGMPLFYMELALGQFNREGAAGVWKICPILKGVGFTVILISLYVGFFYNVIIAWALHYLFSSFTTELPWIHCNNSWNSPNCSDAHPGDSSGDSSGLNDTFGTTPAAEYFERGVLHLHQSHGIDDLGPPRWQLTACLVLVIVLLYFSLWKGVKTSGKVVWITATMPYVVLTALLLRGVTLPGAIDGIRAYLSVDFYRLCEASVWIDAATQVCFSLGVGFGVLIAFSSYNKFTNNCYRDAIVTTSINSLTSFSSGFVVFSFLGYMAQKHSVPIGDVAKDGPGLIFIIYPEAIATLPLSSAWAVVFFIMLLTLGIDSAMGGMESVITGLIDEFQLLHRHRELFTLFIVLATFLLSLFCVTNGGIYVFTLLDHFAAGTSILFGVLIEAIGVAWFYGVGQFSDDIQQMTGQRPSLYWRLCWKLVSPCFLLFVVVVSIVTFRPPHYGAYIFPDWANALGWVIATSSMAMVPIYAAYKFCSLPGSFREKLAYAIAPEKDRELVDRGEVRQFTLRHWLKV", "experiment": "Uptake inhibition assay, DAT", "type": "cell-based", "conditions": "HEK293 cells expressing human DAT, 0.05 µM [3H]MPP+; for IC50: given as a range"}, "human NET": {"molecular_target": "T2, human NET (Homo sapiens, UniProt P23975)", "T2 construct": "expressed in transfected cells", "T2 sequence (P23975 whole entry)": "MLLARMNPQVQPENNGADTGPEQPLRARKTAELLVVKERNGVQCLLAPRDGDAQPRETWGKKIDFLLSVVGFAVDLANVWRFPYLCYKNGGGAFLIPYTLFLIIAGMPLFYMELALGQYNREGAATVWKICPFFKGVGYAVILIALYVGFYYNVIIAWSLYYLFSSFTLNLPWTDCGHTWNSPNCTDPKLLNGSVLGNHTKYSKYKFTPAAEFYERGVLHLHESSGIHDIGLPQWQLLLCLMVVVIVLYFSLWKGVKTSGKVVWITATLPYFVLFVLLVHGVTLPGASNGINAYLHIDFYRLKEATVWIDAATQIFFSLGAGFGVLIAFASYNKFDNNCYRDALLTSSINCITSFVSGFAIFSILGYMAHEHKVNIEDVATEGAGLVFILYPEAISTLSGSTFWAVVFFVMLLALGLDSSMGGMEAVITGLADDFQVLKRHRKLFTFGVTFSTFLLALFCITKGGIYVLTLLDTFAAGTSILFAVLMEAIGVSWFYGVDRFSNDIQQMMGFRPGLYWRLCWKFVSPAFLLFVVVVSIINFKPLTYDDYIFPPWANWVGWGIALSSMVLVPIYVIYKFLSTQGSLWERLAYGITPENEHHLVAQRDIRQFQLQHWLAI", "experiment": "cell-based", "type": "cell-based"}, "human OCT1 [1]": {"molecular_target": "T3, human OCT1 (Homo sapiens, UniProt O15245)", "T3 sequence (O15245 1-554)": "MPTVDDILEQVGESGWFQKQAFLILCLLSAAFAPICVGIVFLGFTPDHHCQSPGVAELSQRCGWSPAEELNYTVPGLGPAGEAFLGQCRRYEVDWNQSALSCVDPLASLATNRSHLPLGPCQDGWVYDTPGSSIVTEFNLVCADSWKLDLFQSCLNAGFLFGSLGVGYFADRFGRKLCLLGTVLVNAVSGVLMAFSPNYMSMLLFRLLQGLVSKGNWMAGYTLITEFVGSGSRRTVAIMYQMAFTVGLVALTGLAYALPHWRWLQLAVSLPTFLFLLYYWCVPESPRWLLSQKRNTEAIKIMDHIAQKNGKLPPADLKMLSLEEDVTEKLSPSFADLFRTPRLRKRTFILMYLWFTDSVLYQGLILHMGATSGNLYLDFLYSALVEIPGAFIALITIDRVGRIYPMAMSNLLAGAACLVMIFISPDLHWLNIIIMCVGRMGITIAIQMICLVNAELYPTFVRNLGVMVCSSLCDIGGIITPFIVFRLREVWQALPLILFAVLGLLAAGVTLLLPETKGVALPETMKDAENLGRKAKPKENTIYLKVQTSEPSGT", "experiment": "cell-based", "description": "(§1) Cells were cultured in Dulbecco’s modified Eagle’s medium (DMEM) supplemented with 10% fetal bovine serum and 250 μg/mL geneticin to maintain selection pressure.\n(§2) HEK293 cells heterologously expressing the respective transporters were seeded onto poly-D-lysine (PDL)-coated 96-well plates at a density of ∼36,000 cells per well, 1 day before experiments. For the experiment, medium was replaced with 200 µL Krebs HEPES buffer (KHB; 120 mM NaCl, 3 mM KCl, 2 mM CaCl2·2H2O, 2 mM MgCl2·6H2O, 20 mM D-glucose, pH 7.3). Test compounds were dissolved in Milli-Q water or dimethyl sulfoxide (DMSO) at 10–100 mM stock concentrations. Cells were preincubated for 5 min with the compound of interest (diluted in KHB to the indicated concentrations). The preincubation solution was then replaced with 50 µL/well of diluted compound together with tritiated substrate (DAT, OCT1, OCT2, OCT3: 0.05 μM [^3H]MPP^+; NET: 0.02 μM [^3H]MPP^+; SERT: 0.1 μM [^3H]5-HT) for 1 min (SERT) or 3 min (DAT, NET, OCT1– OCT3). After the incubation, uptake was terminated by rapidly washing cell with 200 μL KHB, followed by addition of 200 μL Ultima Gold™ XR scintillation cocktail (PerkinElmer, MA, United States) to each well. […] Uptake in the absence of inhibitor was defined as 100%, while uptake in presence of a reference inhibitor (hDAT, hNET: 50 μM GBR12909; hSERT: 3 μM paroxetine; OCT1–OCT3: 100 µM D22) was defined as nonspecific uptake (0%) and subtracted from all values.\n(§3) Uptake is expressed as a percentage of control (uptake in the absence of test compound). Data represent mean ± SD of ≥3 independent experiments."}, "human OCT2 [2]": {"molecular_target": "T4, human OCT2 (Homo sapiens, UniProt O15244)", "T4 sequence (O15244 1-555)": "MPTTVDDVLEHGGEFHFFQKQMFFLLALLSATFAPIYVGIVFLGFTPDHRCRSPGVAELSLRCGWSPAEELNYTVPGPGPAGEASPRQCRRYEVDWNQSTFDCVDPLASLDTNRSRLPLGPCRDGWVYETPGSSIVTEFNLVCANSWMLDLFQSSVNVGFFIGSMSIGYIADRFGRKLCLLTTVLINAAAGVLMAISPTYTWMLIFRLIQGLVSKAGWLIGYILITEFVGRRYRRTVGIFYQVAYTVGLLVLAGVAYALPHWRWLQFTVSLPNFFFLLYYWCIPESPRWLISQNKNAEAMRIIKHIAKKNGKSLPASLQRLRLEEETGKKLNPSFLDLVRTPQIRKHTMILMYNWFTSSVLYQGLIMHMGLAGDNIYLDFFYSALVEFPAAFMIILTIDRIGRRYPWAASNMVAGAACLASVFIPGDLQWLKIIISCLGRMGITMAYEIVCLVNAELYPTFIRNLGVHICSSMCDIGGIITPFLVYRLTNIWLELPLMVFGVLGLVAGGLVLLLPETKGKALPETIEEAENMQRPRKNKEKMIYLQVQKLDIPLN", "experiment": "cell-based", "description": "as §1, §2, §3"}, "human OCT3 [3]": {"molecular_target": "T5, human OCT3 (Homo sapiens, UniProt O75751)", "T5 construct": "expressed in transfected cells", "T5 sequence (O75751 1-556)": "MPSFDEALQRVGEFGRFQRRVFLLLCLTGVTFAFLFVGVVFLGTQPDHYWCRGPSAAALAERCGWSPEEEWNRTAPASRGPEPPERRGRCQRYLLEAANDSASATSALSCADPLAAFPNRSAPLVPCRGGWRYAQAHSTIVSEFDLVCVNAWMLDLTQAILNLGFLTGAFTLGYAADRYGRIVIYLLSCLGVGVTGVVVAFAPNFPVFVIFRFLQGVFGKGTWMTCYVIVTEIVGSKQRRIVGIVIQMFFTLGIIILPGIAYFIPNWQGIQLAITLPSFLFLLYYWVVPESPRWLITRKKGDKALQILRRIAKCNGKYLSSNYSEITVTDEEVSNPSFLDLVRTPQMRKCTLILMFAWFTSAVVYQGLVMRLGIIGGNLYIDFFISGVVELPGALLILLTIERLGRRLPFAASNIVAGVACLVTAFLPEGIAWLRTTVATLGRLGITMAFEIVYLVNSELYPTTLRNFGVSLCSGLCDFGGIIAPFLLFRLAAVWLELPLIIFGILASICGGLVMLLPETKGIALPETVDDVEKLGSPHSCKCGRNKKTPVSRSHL", "experiment": "Uptake inhibition assay, OCT3", "type": "cell-based", "conditions": "HEK293 cells expressing human OCT3, 0.05 µM [3H]MPP+", "description": "as §1, §2, §3"}, "human OCT3 [4]": {"molecular_target": "T5, human OCT3", "set-up": "method as in Angenoorth et al., 2021", "conditions": "ref Angenoorth et al., 2021; cited from earlier work"}, "human OCT1 [5]": {"molecular_target": "T3, human OCT1", "set-up": "expressed in transfected cells; method as in Angenoorth et al., 2021", "conditions": "ref Angenoorth et al., 2021; cited from earlier work"}, "human OCT2 [6]": {"molecular_target": "T4, human OCT2", "set-up": "expressed in transfected cells; method as in Angenoorth et al., 2021", "conditions": "ref Angenoorth et al., 2021; cited from earlier work"}, "[7]": {"conditions": "HEK293 cells expressing human NET, 0.02 µM [3H]MPP+"}, "[8]": {"conditions": "HEK293 cells expressing human NET, 0.02 µM [3H]MPP+, given as a range, read-out: IC50 of NET uptake inhibition"}}, "note": "Like-named read-outs stand apart in the source and are kept apart here.", "data": [{"smiles": "CC(=O)Nc1ccc(O)cc1", "note": "[paracetamol]", "values": [{"measurement": "Inhibitory activity at DAT (in words)", "setting": "human DAT", "result": "no measurable inhibitory activity"}, {"measurement": "Inhibitory activity at NET (in words)", "setting": "human NET; [7]", "result": "no measurable inhibitory activity"}]}, {"smiles": "CCN(CC)CCOC(=O)c1ccc(N)cc1", "note": "[procaine]", "values": [{"measurement": "IC50", "setting": "human DAT", "result": "15 to 29", "unit": "µM"}, {"measurement": "IC50", "setting": "human NET; [8]", "result": "88 to 146", "unit": "µM"}, {"measurement": "IC50", "setting": "human OCT1 [1]", "result": "5 to 9", "unit": "µM"}, {"measurement": "IC50", "setting": "human OCT2 [2]", "result": "10 to 24", "unit": "µM"}, {"measurement": "Inhibition of OCT3-mediated transport (in words)", "setting": "human OCT3 [3]", "result": "none of the compounds—cocaine, procaine, or lidocaine—substantially inhibited OCT3-mediated transport except at near-millimolar concentrations"}]}, {"smiles": "CCOC(=O)c1ccc(N)cc1", "note": "[benzocaine, Ethyl 4-Aminobenzoate]", "values": [{"measurement": "IC50", "setting": "human DAT", "result": "17 to 27", "unit": "µM"}, {"measurement": "IC50", "setting": "human NET; [8]", "result": "215 to 444", "unit": "µM"}, {"measurement": "Inhibition of [3H]MPP+ transport via OCT1 (in words)", "setting": "human OCT1 [1]; HEK293 cells expressing human OCT1, 0.05 µM [3H]MPP+", "result": "failed to inhibit"}, {"measurement": "Inhibition of [3H]MPP+ transport via OCT2 (in words)", "setting": "human OCT2 [2]; HEK293 cells expressing human OCT2, 0.05 µM [3H]MPP+", "result": "failed to inhibit"}, {"measurement": "Inhibition of OCT3-mediated transport (in words)", "setting": "human OCT3 [3]", "result": "failed to inhibit"}]}, {"smiles": "c1ccc([C@H]2CN3CCSC3=N2)cc1", "note": "[levamisole]", "values": [{"measurement": "IC50", "setting": "human DAT", "result": "81 to 316", "unit": "µM"}, {"measurement": "IC50", "setting": "human NET", "result": "60 to 106", "unit": "µM"}]}, {"smiles": "COC(=O)[C@H]1[C@@H](OC(=O)c2ccccc2)C[C@@H]2CC[C@H]1N2C", "note": "[cocaine]", "values": [{"measurement": "IC50", "setting": "human OCT1 [1]", "result": "19 to 57", "unit": "µM"}, {"measurement": "IC50", "setting": "human OCT2 [2]", "result": "15 to 42", "unit": "µM"}, {"measurement": "Inhibition of OCT3-mediated transport (in words)", "setting": "human OCT3 [3]", "result": "none of the compounds—cocaine, procaine, or lidocaine—substantially inhibited OCT3-mediated transport except at near-millimolar concentrations"}, {"measurement": "Inhibition of OCT3 (in words), previously reported", "setting": "human OCT3 [4]", "result": "but not OCT3"}, {"measurement": "Inhibition of OCT1 (in words), previously reported", "setting": "human OCT1 [5]", "result": "inhibits OCT1 and OCT2"}, {"measurement": "Inhibition of OCT2 (in words), previously reported", "setting": "human OCT2 [6]", "result": "inhibits OCT1 and OCT2"}]}, {"smiles": "CCOc1ccc(NC(C)=O)cc1", "note": "[phenacetin]", "values": [{"measurement": "Inhibitory activity at DAT (in words)", "setting": "human DAT", "result": "no measurable inhibitory activity"}, {"measurement": "Inhibitory activity at NET (in words)", "setting": "human NET; [7]", "result": "no measurable inhibitory activity"}]}, {"smiles": "CCN(CC)CC(=O)Nc1c(C)cccc1C", "note": "[lidocaine]", "values": [{"measurement": "Inhibitory activity at DAT (in words)", "setting": "human DAT", "result": "no inhibitory potency"}, {"measurement": "Inhibitory activity at NET (in words)", "setting": "human NET; [7]", "result": "no inhibitory potency"}]}]}
